Read-outs that look alike come from different tables or passages of the source. Ends that are not written are not given here.
What was measured:
NPR-3 = assay: cAMP reporter gene assay, Gs (no forskolin), NPR-3; format: cell-based, C. elegans; settings: 4 h, NPR-3-transfected HEK293, CRE-luciferase reporter, mean of >=3 independent experiments
Method: (§1) Activation of Gs and Gi/o was assessed with a cAMP reporter gene assay. HEK293 cells grown to 70–80% confluency in 6-well plates were transiently co-transfected with vectors encoding the receptor and the cAMP reporter gene plasmid pGL4.29 [luc2P/CRE/Hygro] (Promega; 4 μg total, 1:1 ratio) using Metafectene Pro (3 μl/μg DNA; Biontex) following the manufacturer’s instructions. 16 h post transfection, the cells were seeded into white 384-well plates at a density of 20,000 cells/well. On the next day, the medium was removed and the cells were stimulated with 20 μl of peptide solution (or forskolin as positive control) in serum-free DMEM for 4 h. For measuring Gi/o activity, the peptide solutions additionally contained 1 μM forskolin to elevate cellular cAMP levels. After incubation, the luciferase substrate OneGlo in lysis buffer (Promega) was added and the luminescence was measured in a microplate reader Tecan Spark (Tecan). Data were analyzed with GraphPad Prism 5.03 and are shown as fold of basal or fold of forskolin in case of Gαi/o activity.
(§2) For in vitro activation, data is presented as mean ± SEM of at least three independent experiments conducted in technical triplicate. […] For the C. elegans NPRs, we considered the strongest response elicited by any of the peptides downstream of a particular receptor as the receptor’s maximal signal. This may or may not be the biological maximum that can be reached by the ‘true’ endogenous agonist. For the human receptors, the response to the established endogenous agonist reflected the maximal signal.

NPR-4b [1] = molecular target: T1, NPR-4b (Caenorhabditis elegans, UniProt A0A078BTK0); assay: cAMP reporter gene assay, Gs (no forskolin), NPR-4b; format: cell-based, C. elegans; settings: 4 h, NPR-4b-transfected HEK293, CRE-luciferase reporter, mean of >=3 independent experiments
T1 sequence (A0A078BTK0 1-376): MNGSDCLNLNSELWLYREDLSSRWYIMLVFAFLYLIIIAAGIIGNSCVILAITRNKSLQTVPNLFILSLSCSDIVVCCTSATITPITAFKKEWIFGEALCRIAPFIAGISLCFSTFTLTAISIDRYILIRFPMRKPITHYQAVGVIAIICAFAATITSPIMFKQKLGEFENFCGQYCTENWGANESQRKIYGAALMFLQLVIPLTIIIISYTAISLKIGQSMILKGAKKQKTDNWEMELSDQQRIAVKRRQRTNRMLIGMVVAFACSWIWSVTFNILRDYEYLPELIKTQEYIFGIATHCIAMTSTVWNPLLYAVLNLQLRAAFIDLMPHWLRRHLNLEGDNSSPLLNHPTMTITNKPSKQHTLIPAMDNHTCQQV
Method: as §1, §2

NPR-5b [2] = molecular target: T2, NPR-5b (Caenorhabditis elegans, UniProt Q6F3C9); assay: cAMP reporter gene assay, Gs (no forskolin), NPR-5b; format: cell-based, C. elegans; settings: 4 h, NPR-5b-transfected HEK293, CRE-luciferase reporter, mean of >=3 independent experiments
T2 sequence (Q6F3C9 1-433): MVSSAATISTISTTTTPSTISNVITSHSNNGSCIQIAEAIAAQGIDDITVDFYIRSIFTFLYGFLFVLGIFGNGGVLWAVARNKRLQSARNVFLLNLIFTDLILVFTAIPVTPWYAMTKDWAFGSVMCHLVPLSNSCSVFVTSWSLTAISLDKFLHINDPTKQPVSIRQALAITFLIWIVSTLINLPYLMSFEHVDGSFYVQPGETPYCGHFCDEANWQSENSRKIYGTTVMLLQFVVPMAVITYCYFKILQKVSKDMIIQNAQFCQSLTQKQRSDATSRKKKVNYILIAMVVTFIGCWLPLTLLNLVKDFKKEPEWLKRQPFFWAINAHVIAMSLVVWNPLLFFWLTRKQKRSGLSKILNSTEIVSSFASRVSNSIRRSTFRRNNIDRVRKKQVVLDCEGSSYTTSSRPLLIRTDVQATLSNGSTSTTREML
Method: as §1, §2

NPR-6 = assay: cAMP reporter gene assay, Gs (no forskolin), NPR-6; format: cell-based, C. elegans; settings: 4 h, NPR-6-transfected HEK293, CRE-luciferase reporter, mean of >=3 independent experiments
Method: as §1, §2

NPR-11 [3] = molecular target: T3, NPR-11 (Caenorhabditis elegans, UniProt Q18179); assay: cAMP reporter gene assay, Gs (no forskolin), NPR-11; format: cell-based, C. elegans; settings: 4 h, NPR-11-transfected HEK293, CRE-luciferase reporter, mean of >=3 independent experiments
T3 construct: expressed in transfected cells; host or cells: HEK293, transient
T3 sequence (Q18179 1-402): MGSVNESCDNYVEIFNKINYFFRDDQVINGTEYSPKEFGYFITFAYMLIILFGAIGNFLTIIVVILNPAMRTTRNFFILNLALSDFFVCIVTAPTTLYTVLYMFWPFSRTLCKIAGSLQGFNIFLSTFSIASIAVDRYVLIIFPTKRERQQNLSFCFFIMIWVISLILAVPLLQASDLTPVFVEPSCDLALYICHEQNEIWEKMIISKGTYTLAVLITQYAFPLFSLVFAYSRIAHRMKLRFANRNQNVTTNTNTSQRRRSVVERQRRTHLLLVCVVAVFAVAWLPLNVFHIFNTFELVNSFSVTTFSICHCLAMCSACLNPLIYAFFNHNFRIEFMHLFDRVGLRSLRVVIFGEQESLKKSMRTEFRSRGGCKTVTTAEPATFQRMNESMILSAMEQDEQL
Method: as §1, §2

NPR-1 [4] = molecular target: T4, NPR-1 (Caenorhabditis elegans, UniProt Q18534); assay: cAMP reporter gene assay, Gs (no forskolin), NPR-1; format: cell-based, C. elegans; design: host or cells: HEK293; settings: 4 h, NPR-1-transfected HEK293, CRE-luciferase reporter, mean of >=3 independent experiments
T4 sequence (Q18534 1-457): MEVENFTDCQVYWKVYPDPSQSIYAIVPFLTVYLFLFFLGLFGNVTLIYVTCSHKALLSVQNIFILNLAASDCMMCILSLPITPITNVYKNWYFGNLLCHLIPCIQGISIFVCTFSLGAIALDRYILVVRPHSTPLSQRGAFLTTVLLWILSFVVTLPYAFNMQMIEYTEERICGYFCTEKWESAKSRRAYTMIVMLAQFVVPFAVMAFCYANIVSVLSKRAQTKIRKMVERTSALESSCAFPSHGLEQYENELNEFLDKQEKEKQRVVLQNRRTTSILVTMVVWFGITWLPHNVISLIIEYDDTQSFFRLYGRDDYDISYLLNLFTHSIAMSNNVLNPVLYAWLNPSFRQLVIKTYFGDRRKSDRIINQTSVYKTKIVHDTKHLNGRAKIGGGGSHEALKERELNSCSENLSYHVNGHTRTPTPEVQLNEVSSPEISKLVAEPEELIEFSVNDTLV
Method: as §1, §2

NPR-5b [5] = molecular target: T2, NPR-5b; assay: cAMP reporter gene assay, Gi/o (with forskolin), NPR-5b; format: cell-based, C. elegans; design: Emax: unit not given here; settings: NPR-5b, transiently transfected HEK293 cells
Method: as §1, with “(Tecan).” for “(Tecan). Data were analyzed with GraphPad Prism 5.03 and are shown as fold of basal or fold of forskolin in case of Gαi/o activity.”
as §2

NPR-11 [6] = molecular target: T3, NPR-11; assay: cAMP reporter gene assay, Gi/o (inhibition of forskolin-induced cAMP), NPR-11; format: cell-based, C. elegans; settings: for Emax: HEK293, read-out: Emax ± SEM [%]
Method: as §1, §2

[7] = Solubility of crude peptides in RP-HPLC purification solvents; format: physicochemical; settings: H2O + 0.1% TFA / acetonitrile + 0.08% TFA (RP-HPLC purification conditions)
Method: C-terminally amidated peptides were synthesized in 15 μmol scale by solid-phase peptide synthesis following the Fmoc/tert-butyl strategy (reviewed in [18]) on Rink amide resin using an automated Syro II peptide synthesizer (MultiSynTech). Automated coupling reactions were performed as double couplings using 8 eq Nα-protected amino acid, activated in situ with equimolar amounts of Oxyma and […] in dimethylformamide (DMF) for 30 min. Automated Fmoc deprotection was carried out with 40% (v/v) piperidine in DMF for 3 min and 20% (v/v) piperidine in DMF for 10 min. Reactive side chains of amino acids were protected by tert-butyl (tBu for Tyr, Ser, Asp, Glu, Thr), trityl (Trt for Asn, Gln, His), 2,2,4,6,7-pentamethyldihydrobenzofuran-5-sulfonyl (Pbf for Arg) and tert-butyloxycarbonyl (Boc for Lys). Peptides were cleaved off the resin using trifluoroacetic acid (TFA)/H2O/triisopropylsilane (90/5/5, v/v/v) for 2.5 h at room temperature and precipitated in ice cold diethyl ether. All peptides were purified to > 95% purity by RP-HPLC (Shimadzu) using a Phenomenex Jupiter 10 μm Proteo 90 Å (C12) column. For most peptides, linear gradients of H2O + 0.1% trifluoroacetic acid (TFA) (eluent A) and acetonitrile (ACN) + 0.08% TFA (eluent B) were applied at a flow rate of 10 ml/minute. […] FLP-27, FLP-33, and FLP-34 were solubilized by ultrasonication at 50 °C for 10 min and subsequently purified under standard solvent conditions used pre-heated HPLC systems. […] Peptide identity was verified by matrix-assisted laser desorption/time of flight (MALDI-ToF; Ultraflex III MALDI-ToF/ToF, Bruker Daltonics) mass spectrometry, and peptide purity was evaluated with analytical RP-HPLC.

NPR-1 [8] = molecular target: T4, NPR-1; assay: cAMP reporter gene assay, Gi/o (inhibition of forskolin-induced cAMP), NPR-1; format: cell-based, C. elegans; design: host or cells: HEK293; settings: for Emax: HEK293, read-out: Emax ± SEM [%]
Method: as §1, §2

NPR-4b [9] = molecular target: T1, NPR-4b; assay: cAMP reporter gene assay, Gi/o (inhibition of forskolin-induced cAMP), NPR-4b; format: cell-based, C. elegans
Method: as §1, with “(Tecan).” for “(Tecan). Data were analyzed with GraphPad Prism 5.03 and are shown as fold of basal or fold of forskolin in case of Gαi/o activity.”
as §2

[10] = 1 µM forskolin (positive control)
[11] = 100 µM forskolin (positive control)

For C=C[C@@]1(C)CC(=O)[C@]2(O)[C@@]3(C)[C@@H](O)CCC(C)(C)[C@@H]3[C@H](O)[C@H](OC(C)=O)[C@@]2(C)O1 [forskolin, reference compound], the “cAMP assay Gs, NPR-3” value (NPR-3; [10]) was 20.07 x-fold of basal, the “cAMP assay Gs, NPR-3” value (NPR-3; [11]) was 51.90 x-fold of basal and the “cAMP assay Gs, NPR-4b” value (NPR-4b [1]; [10]) was 16.52 x-fold of basal. For the same compound, the “cAMP assay Gs, NPR-4b” value (NPR-4b [1]; [11]) was 44.21 x-fold of basal, the “cAMP assay Gs, NPR-5b” value (NPR-5b [2]; [10]) was 23.17 x-fold of basal and the “cAMP assay Gs, NPR-5b” value (NPR-5b [2]; [11]) was 67.99 x-fold of basal. For the same compound, the “cAMP assay Gs, NPR-6” value (NPR-6; [10]) was 12.19 x-fold of basal, the “cAMP assay Gs, NPR-6” value (NPR-6; [11]) was 46.24 x-fold of basal and the “cAMP assay Gs, NPR-11” value (NPR-11 [3]; [10]) was 16.67 x-fold of basal. The “cAMP assay Gs, NPR-11” value (NPR-11 [3]; [11]) was 60.68 x-fold of basal, the “cAMP assay Gs, NPR-1” value (NPR-1 [4]; [10]) was 15.39 x-fold of basal and the “cAMP assay Gs, NPR-1” value (NPR-1 [4]; [11]) was 76.79 x-fold of basal.

For ADISTFASAINNAGRLRY-NH2 [FLP-34-1], the Emax (NPR-5b [5]; forskolin (1 µM) set to 1.00, increase of cAMP, mean ± SEM of at least three independent experiments, SEM) was 6.7 ± 8.21, the EC50 (NPR-5b [5]; full concentration-response curve, with 1 µM forskolin, increase of cAMP, at least three independent experiments) was 20100 nM and the Emax (NPR-11 [6]; SEM) was -0.62 ± 0.1%. For the same compound, the EC50 (NPR-11 [6]; SEM) was 20 nM, the “solubility of crude peptide” value [7] was “partly insoluble” and the EC50 (NPR-1 [8]) was 578 nM. It also gave an Emax (NPR-1 [8]; SEM) of -0.65 ± 0.14%.

Compound ALNRDSLVASLNNAERLRF-NH2 [FLP-34-2] has an EC50 (NPR-11 [6]; EC50 at NPR-11, full concentration-response curve, inhibition of 1 µM forskolin-induced cAMP, transfected HEK293 (Figure S1, Table S11)) of 0.7 nM, an Emax (NPR-11 [6]; SEM) of -0.65 ± 0.14% and an EC50 (NPR-11 [6]; SEM) of 0.631 nM. For the same compound, the “solubility of crude peptide” value [7] was “partly insoluble”.

KHEYLRF-NH2 [FLP-14] showed an EC50 (NPR-4b [9]) of 2430 nM, an Emax (NPR-4b [9]; NPR-4b, forskolin (1 µM) set to 1.00, lower values correspond to high Gi/o activity, transiently transfected HEK293 cells, mean ± SEM of at least three independent experiments, SEM) of -0.77 ± 0.2% and an EC50 (NPR-11 [6]) of 1890 nM. For the same compound, the Emax (NPR-11 [6]; SEM) was -0.86 ± 0.19%, the Emax (NPR-1 [8]; SEM) was -0.51 ± 0.13% and the EC50 (NPR-1 [8]; SEM) was 25.1 nM. For the same compound, the “Emax at NPR-1” value (NPR-1 [8]; full concentration-response curve, inhibition of 1 µM forskolin-induced cAMP, transfected HEK293 (Figure S1)) was 53 % of FLP-21 induced response.
